From patent US7855292B2, “Sulfonamide compounds” (Janssen Pharmaceutica NV, priority 2004, dated 2010)

Key:
CCK-1 receptor = biological target: T1, CCK-1 receptor (Homo sapiens, UniProt P32238); test: CCK1 binding assay ([125I]-BH-CCK-8S displacement, CHO-K1 membranes); conditions: membranes of CHO-K1 cells stably transfected with the CCK-1 receptor, 20 pM [125I]-BH-CCK-8S, 0.3 μM PD-134,308 present, 60 min at 21±3° C.; for Ki: read-out: CCK1 pKi (converted)
T1 construct: expressed in transfected cells; host or cells: CHO-K1
T1 sequence (P32238 1-428): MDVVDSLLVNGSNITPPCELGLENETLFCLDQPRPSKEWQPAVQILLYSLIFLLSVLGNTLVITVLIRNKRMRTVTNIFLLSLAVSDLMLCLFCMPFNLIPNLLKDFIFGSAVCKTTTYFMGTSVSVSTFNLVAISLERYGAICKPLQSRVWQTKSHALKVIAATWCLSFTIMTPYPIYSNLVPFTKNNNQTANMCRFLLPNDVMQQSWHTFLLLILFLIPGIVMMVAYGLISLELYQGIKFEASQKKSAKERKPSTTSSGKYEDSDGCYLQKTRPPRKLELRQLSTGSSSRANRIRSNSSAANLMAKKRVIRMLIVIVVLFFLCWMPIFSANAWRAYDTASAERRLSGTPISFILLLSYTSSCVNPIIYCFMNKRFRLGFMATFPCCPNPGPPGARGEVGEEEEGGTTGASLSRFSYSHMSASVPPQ
How it was run: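 Membranes from CHO-K1 cells stably expressing CCK-1 incubated 1 h at 21±3° C with 20 pM [125I]-BH-CCK-8S in HEPES buffer pH 7.2 containing 0.3 μM PD-134,308 to block CCK-2. Bound radioactivity read by gamma counting after filtration. pKi derived via Cheng-Prusoff, with specific binding defined using 2-NAP.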

CCK2 receptor = biological target: T2, CCK2 receptor (Homo sapiens, UniProt P32239); test: CCK2 binding assay ([125I]-BH-CCK-8S displacement, HEKZFP membranes); conditions: membranes of doxycycline-induced HEKZFP cells, 20 pM [125I]-BH-CCK-8S, 60 min at 21±3° C.; for Ki: read-out: CCK2 pKi (converted)
T2 construct: analyzed for ZFP expression as well as CCK2R induction upon addition of doxycycline to the culture medium; endogenous in cells
T2 sequence (P32239 1-447): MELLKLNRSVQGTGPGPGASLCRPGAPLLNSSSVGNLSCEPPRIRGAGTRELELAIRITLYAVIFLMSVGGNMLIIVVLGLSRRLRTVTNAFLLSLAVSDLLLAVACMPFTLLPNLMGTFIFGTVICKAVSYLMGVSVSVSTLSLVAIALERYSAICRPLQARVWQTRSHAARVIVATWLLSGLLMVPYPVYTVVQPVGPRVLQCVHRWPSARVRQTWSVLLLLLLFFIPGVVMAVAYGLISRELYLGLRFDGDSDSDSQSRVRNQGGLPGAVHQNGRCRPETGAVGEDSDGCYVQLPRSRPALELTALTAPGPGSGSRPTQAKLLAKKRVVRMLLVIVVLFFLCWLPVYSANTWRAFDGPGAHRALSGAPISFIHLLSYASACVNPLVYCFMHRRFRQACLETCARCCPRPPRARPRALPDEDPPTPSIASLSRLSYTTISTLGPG

SMILES	CCK1 pKi (CCK-1 receptor)	CCK2 pKi (CCK2 receptor)	Ki (CCK-1 receptor) [nM]	Ki (CCK2 receptor) [nM]
COC(=O)[C@H](Cc1ccc(F)c(Br)c1)NC(=O)c1cc(Cl)c(Cl)cc1NS(=O)(=O)c1cccc2nsnc12 [Example 150, (S)-2-[2-(Benzo[1,2,5]thiadiazole-4-sulfonylamino)-4,5-dichloro-benzoylamino]-3-(3-bromo-4-fluoro-phenyl)-propionic acid methyl ester]			79.4	251
CC(CNC(=O)c1ccc(I)cc1NS(=O)(=O)c1c(F)cccc1F)c1ccc([N+](=O)[O-])cc1 (stereo not drawn) [Example 48, 2-(2,6-Difluoro-benzenesulfonylamino)-4-iodo-N-[2-(4-nitro-phenyl)-propyl]-benzamide]			50.1	2000
CC(CNC(=O)c1cc(Cl)c(Cl)cc1NS(=O)(=O)c1cccc2nsnc12)c1ccc(Cl)c(Cl)c1 (racemic) [Example 58, (±)-2-(Benzo[1,2,5]thiadiazole-4-sulfonylamino)-4,5-dichloro-N-[2-(3,4-dichloro-phenyl)-propyl]-benzamide]			31.6	501
CC(CNC(=O)c1ccc(Br)cc1NS(=O)(=O)c1cccc2nsnc12)c1ccc(Cl)c(Cl)c1 (stereo not drawn) [Example 5, 2-(Benzo[1,2,5]thiadiazole-4-sulfonylamino)-4-bromo-N-[2-(3,4-dichloro-phenyl)-propyl]-benzamide]			15.8	316
CC(CNC(=O)c1ccc(Cl)cc1NS(=O)(=O)c1c(F)cccc1F)c1ccc(Cl)cc1Cl (stereo not drawn) [Example 43, 4-Chloro-N-[2-(2,4-dichloro-phenyl)-propyl]-2-(2,6-difluoro-benzenesulfonylamino)-benzamide]			126	251
CC(CNC(=O)c1ccc(Br)cc1NS(=O)(=O)c1cccc2nsnc12)c1ccc(Cl)cc1 (stereo not drawn) [Example 21, 2-(Benzo[1,2,5]thiadiazole-4-sulfonylamino)-4-bromo-N-[2-(4-chloro-phenyl)-propyl]-benzamide]			126	1000
O=C(N[C@H](Cc1ccc(Cl)c(Cl)c1)C(=O)O)c1ccc(I)cc1NS(=O)(=O)c1cccc2nccnc12 [Example 60, (R)-3-(3,4-Dichloro-phenyl)-2-[4-iodo-2-(quinoxaline-5-sulfonylamino)-benzoylamino]-propionic acid]			79.4	398
CCOC(=O)[C@H](Cc1ccc(F)c(Br)c1)NC(=O)c1cc(Cl)c(Cl)cc1NS(=O)(=O)c1cccc2nsnc12 [Example 163, (S)-2-[2-(Benzo[1,2,5]thiadiazole-4-sulfonylamino)-4,5-dichloro-benzoylamino]-3-(3-bromo-4-fluoro-phenyl)-propionic acid ethyl ester]			126	398
COC(=O)[C@H](Cc1ccc(Cl)cc1)NC(=O)c1cc(Cl)c(Cl)cc1NS(=O)(=O)c1cccc2nsnc12 [Example 67, (S)-2-[2-(Benzo[1,2,5]thiadiazole-4-sulfonylamino)-4,5-dichloro-benzoylamino]-3-(4-chloro-phenyl)-propionic acid methyl ester]			200	251
C[C@@H](NC(=O)c1ccc(I)cc1NS(=O)(=O)c1cccc2nsnc12)[C@@H](O)c1cccc(Br)c1 [Example 101, 2-(Benzo[1,2,5]thiadiazole-4-sulfonylamino)-N-[(2S,1R)-2-(3-bromo-phenyl)-2-hydroxy-1-methyl-ethyl]-4-iodo-benzamide]			39.8	794
O=C(N[C@H](Cc1ccc(Cl)cc1)C(=O)O)c1cc(Cl)c(Cl)cc1NS(=O)(=O)c1cccc2nsnc12 [Example 14, (R)-2-[2-(Benzo[1,2,5]thiadiazole-4-sulfonylamino)-4,5-dichloro-benzoylamino]-3-(4-chloro-phenyl)-propionic acid]			12.6	316

The remaining lines, values ahead:

CCK1 pKi (CCK-1 receptor)	CCK2 pKi (CCK2 receptor)	Ki (CCK-1 receptor) [nM]	Ki (CCK2 receptor) [nM]	SMILES
6.5	8.3			O=C(N[C@@H](Cc1ccc(F)c(Br)c1)C(=O)O)c1ccc(Br)cc1NS(=O)(=O)c1cccc2nccnc12 [Example 158, (S)-3-(3-Bromo-4-fluoro-phenyl)-2-[4-bromo-2-(quinoxaline-5-sulfonylamino)-benzoylamino]-propionic acid]
		158	398	COC(=O)[C@H](Cc1ccc(Cl)c(Br)c1)NC(=O)c1ccc(I)cc1NS(=O)(=O)c1cccc2nsnc12 [Example 122, (S)-2-[2-(Benzo[1,2,5]thiadiazole-4-sulfonylamino)-4-iodo-benzoylamino]-3-(3-bromo-4-chloro-phenyl)-propionic acid methyl ester]
		158	39.8	O=C(N[C@@H](Cc1ccc(Cl)c(Br)c1)C(=O)O)c1cc(Cl)c(Cl)cc1NS(=O)(=O)c1cccc2nsnc12 [Example 147, (S)-2-[2-(Benzo[1,2,5]thiadiazole-4-sulfonylamino)-4,5-dichloro-benzoylamino]-3-(3-bromo-4-chloro-phenyl)-propionic acid]
		501	200	O=C(N[C@@H](Cc1ccc(Cl)c(Cl)c1)C(=O)O)c1ccc(Cl)cc1NS(=O)(=O)c1c(F)cccc1F [Example 119, (S)-2-[4-Chloro-2-(2,6-difluoro-benzenesulfonylamino)-benzoylamino]-3-(3,4-dichloro-phenyl)-propionic acid]
7.1	5.8			C[C@@H](CNC(=O)c1ccc(Br)cc1NS(=O)(=O)c1cccc2nsnc12)c1ccccc1 [Example 36, (R)-2-(Benzo[1,2,5]thiadiazole-4-sulfonylamino)-4-bromo-N-(2-phenyl-propyl)-benzamide]
		501	631	CC(Cc1ccc(Cl)cc1)NC(=O)c1ccc(C(F)(F)F)cc1NS(=O)(=O)c1cccc2nsnc12 (stereo not drawn) [Example 22, 2-(Benzo[1,2,5]thiadiazole-4-sulfonylamino)-N-[2-(4-chloro-phenyl)-1-methyl-ethyl]-4-trifluoromethyl-benzamide]
		79.4	501	CC(CNC(=O)c1ccc(I)cc1NS(=O)(=O)c1cccc2nsnc12)c1ccc(Cl)cc1 (stereo not drawn) [Example 72, 2-(Benzo[1,2,5]thiadiazole-4-sulfonylamino)-N-[2-(4-chloro-phenyl)-propyl]-4-iodo-benzamide]
		3980	31.6	O=C(N[C@@H](Cc1cccc(Cl)c1)C(=O)O)c1ccc(Cl)cc1NS(=O)(=O)c1cccc2nccnc12 [Example 78, (S)-3-(3-Chloro-phenyl)-2-[4-chloro-2-(quinoxaline-5-sulfonylamino)-benzoylamino]-propionic acid]
		398	100	O=C(N[C@@H](Cc1ccc(Cl)c(Cl)c1)C(=O)O)c1ccc(I)cc1NS(=O)(=O)c1c(F)cccc1F [Example 32, 3-(3,4-Dichloro-phenyl)-2-[2-(2,6-difluoro-benzenesulfonylamino)-4-iodo-benzoylamino]-propionic acid]
		39.8	1000	C[C@@H](NC(=O)c1ccc(Cl)cc1NS(=O)(=O)c1cccc2nsnc12)[C@@H](O)c1ccc(Cl)cc1 [Example 55, 2-(Benzo[1,2,5]thiadiazole-4-sulfonylamino)-4-chloro-N-[(1R,2S)-2-(4-chloro-phenyl)-2-hydroxy-1-methyl-ethyl]-benzamide]
		100	631	O=C(N[C@@H](Cc1ccc(Cl)c(Cl)c1)C(=O)NCc1cccc(Cl)c1)c1ccc(Cl)cc1NS(=O)(=O)c1cccc2nsnc12 [Example 128, (S)-2-(Benzo[1,2,5]thiadiazole-4-sulfonylamino)-4-chloro-N-[1-(3-chloro-benzylcarbamoyl)-2-(3,4-dichloro-phenyl)-ethyl]-benzamide]
		398	31.6	O=C(N[C@@H](Cc1ccc(Cl)cc1Cl)C(=O)O)c1ccc(I)cc1NS(=O)(=O)c1cccc2nsnc12 [Example 133, (S)-2-[2-(Benzo[1,2,5]thiadiazole-4-sulfonylamino)-4-iodo-benzoylamino]-3-(2,4-dichloro-phenyl)-propionic acid]
		2000	100	CN(CCc1ccccc1)C(=O)c1ccc(Br)cc1NS(=O)(=O)c1cccc2nsnc12 [Example 20, 2-(Benzo[1,2,5]thiadiazole-4-sulfonylamino)-4-bromo-N-methyl-N-phenethyl-benzamide]
